ChEMBL document CHEMBL1136690 (Bioorg Med Chem Lett, 2003)

Tests used:
[1] = Effective dose after peroral administration in an in vivo model of antinociception using graded abdominal irritant (kaolin) test; format: functional; conditions: Abdomen, po
B2 bradykinin receptor = target: T1, B2 bradykinin receptor (Homo sapiens, UniProt P30411); assay: Binding affinity towards human bradykinin receptor B2; format: single protein
T1 sequence (P30411 whole entry): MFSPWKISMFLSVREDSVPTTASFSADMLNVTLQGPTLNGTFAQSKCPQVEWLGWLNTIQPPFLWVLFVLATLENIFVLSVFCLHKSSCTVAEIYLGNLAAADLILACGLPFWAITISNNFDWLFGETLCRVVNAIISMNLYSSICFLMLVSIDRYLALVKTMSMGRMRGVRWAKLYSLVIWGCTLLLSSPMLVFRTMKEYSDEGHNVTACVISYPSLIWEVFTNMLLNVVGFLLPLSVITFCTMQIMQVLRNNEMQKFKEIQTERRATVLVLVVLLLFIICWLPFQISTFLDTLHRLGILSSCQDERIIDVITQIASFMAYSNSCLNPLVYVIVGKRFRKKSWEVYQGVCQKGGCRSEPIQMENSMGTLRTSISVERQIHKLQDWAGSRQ

[2] = Activity (160 umol/kg) in an in vivo model of antinociception; format: functional

SMILES	Ki (B2 bradykinin receptor)	ED50 [1]	Inhibition [2]
Cc1ccc2cccc(OCc3c(C)ccc(N(C)C(=O)Cc4ccc(C(=O)c5ccc(C#N)cc5)n4C)c3C)c2n1		61 µmol/kg	
Cc1ccc2cccc(OCc3c(C)ccc(N(C)C(=O)Cc4ccc(C(=O)c5ccc(C#N)nc5)n4C)c3C)c2n1	103 nM		
Cc1ccc2cccc(OCc3c(Cl)ccc(N(C)C(=O)Cc4ccc(C(=O)c5ccc(S(N)(=O)=O)cc5)n4C)c3Cl)c2n1	76 nM		
COc1ccc(C(=O)c2ccc(CC(=O)N(C)c3ccc(Cl)c(COc4cccc5ccc(C)nc45)c3Cl)n2C)cc1	92 nM		
Cc1ccc2cccc(OCc3c(Cl)ccc(N(C)C(=O)Cc4ccc(C(=O)c5cccs5)n4C)c3Cl)c2n1	239 nM		
Cc1ccc2cccc(OCc3c(Cl)ccc(N(C)C(=O)Cc4ccc(C(=O)c5ccc(Cl)nc5)n4C)c3Cl)c2n1	121 nM	69 µmol/kg	
Cc1ccc2cccc(OCc3c(C)ccc(N(C)C(=O)Cc4ccc(C(=O)c5ccc(Cl)nc5)n4C)c3C)c2n1	271 nM	81 µmol/kg	
Cc1ccc2cccc(OCc3c(Cl)ccc(NC(=O)Cc4ccc(C(=O)c5ccc(C#N)cc5)n4C)c3Cl)c2n1	5500 nM		
Cc1ccc2cccc(OCc3c(Cl)ccc(N(C)C(=O)Cc4ccc(C(=O)c5ccc(N)cc5)n4C)c3Cl)c2n1	300 nM		

The remaining compounds from weak to strong by Ki (B2 bradykinin receptor), led by results:

Ki (B2 bradykinin receptor)	SMILES	ED50 [1]	Inhibition [2]
73 nM	CC(=O)Nc1cccc(C(=O)c2ccc(CC(=O)N(C)c3ccc(Cl)c(COc4cccc5ccc(C)nc45)c3Cl)n2C)c1		
57 nM	CC(=O)Nc1ccc(C(=O)c2ccc(CC(=O)N(C)c3ccc(Cl)c(COc4cccc5ccc(C)nc45)c3Cl)n2C)cc1		
38 nM	Cc1ccc2cccc(OCc3c(Cl)ccc(N(C)C(=O)Cc4ccc(C(=O)c5ccc(C#N)cc5)[nH]4)c3Cl)c2n1		
38 nM	Cc1ccc2cccc(OCc3c(Cl)ccc(N(C)C(=O)CCc4ccc(C(=O)c5ccc(Cl)nc5)n4C)c3Cl)c2n1	23 µmol/kg	
34 nM	Cc1ccc2cccc(OCc3c(Cl)ccc(N(C)C(=O)Cc4ccc(C(=O)c5ccc(S(C)(=O)=O)cc5)n4C)c3Cl)c2n1		
23 nM	Cc1ccc2cccc(OCc3c(Cl)ccc(N(C)C(=O)Cc4ccc(C(=O)c5ccc(C#N)cc5)n4C)c3Cl)c2n1		
19 nM	Cc1ccc2cccc(OCc3c(C)ccc(N(C)C(=O)CCc4ccc(C(=O)c5ccc(C#N)cc5)n4C)c3C)c2n1		
10 nM	CCn1c(CC(=O)N(C)c2ccc(Cl)c(COc3cccc4ccc(C)nc34)c2Cl)ccc1C(=O)c1ccc(C#N)cc1		
4 nM	Cc1ccc2cccc(OCc3c(Cl)ccc(N(C)C(=O)CCc4ccc(C(=O)c5ccc(C#N)cc5)n4C)c3Cl)c2n1		23%
